The text below walks through data of PMC12524796, “Discovery of Galloyl–Flavonoid Conjugates as SARS-CoV-2 3CL^pro Inhibitors: Understanding Binding Interactions Through Computational Approaches” (International Journal of Molecular Sciences, 2025).

Where two headings read alike, the source gives them in different places.

For test [1], the target named is T1, SARS-CoV-2 3CL^pro (Severe acute respiratory syndrome coronavirus 2, UniProt P0DTD1). Also on record: method as in PMID 38277124.
The target in test [2] is T1, SARS-CoV-2 3CL^pro. Nature of the test: biochemical. It counts as biochemical. To be noted: for inhibition at 100 µM: read-out: SARS-CoV-2 3CL^pro Inhibition 100 µM (%).
Another test concerns 3CL^pro. Also on record: method as in PMID 32272481. As to conditions: read-out: IC50 against 3CL^pro; cited from earlier work.
[3] abbreviates: 100 µM compound; values marked footnote 3; cited from earlier work.
Setting [4] is: values marked footnote 3; read-out: SARS-CoV-2 3CL^pro Inhibition IC50; cited from earlier work.
Setting [5] is: FRET assay, read-out: SARS-CoV-2 3CL^pro Inhibition IC50.
Setting [6] is: read-out: SARS-CoV-2 3CL^pro Inhibition IC50; values marked footnote 3; cited from earlier work.

One may read the IC50 as the midpoint of a concentration-inhibition curve. As to `COc1c(C)c(O)c(C)c(O)c1C(=O)/C=C/c1ccccc1` [Compound 9, dimethylcardamonin], the “SARS-CoV-2 3CL^pro Inhibition 100 µM (%)” value on SARS-CoV-2 3CL^pro [1] (setting [3]) is on record as 84.59 ± 0.84 ^3%. In addition, the IC50 at SARS-CoV-2 3CL^pro [1] (setting [4]) was 27.5 µM.
For orientation: inhibition means the share of the control response that was lost under treatment. `COc1cc(C(=O)Oc2cc(O)c3c(c2)O[C@H](c2ccccc2)CC3=O)ccc1OC(C)=O` [Compound 34, 7-O-(O-acetylvanilloyl)pinocembrin]: at SARS-CoV-2 3CL^pro [2], the inhibition at 100 µM was found to be 83.7 ± 3.37%.
As to `COc1cc(OC(=O)c2cc(O)c(O)c(O)c2)c2c(=O)cc(-c3ccccc3)oc2c1` [Compound 42, 5-O-galloyltectochrysin], the inhibition at 100 µM on SARS-CoV-2 3CL^pro [2] (100 µM compound, FRET assay) is more than 99%. The IC50 on SARS-CoV-2 3CL^pro [2] (setting [5]) turned out to be 20.6 µM.
Regarding `O=C(Oc1cc(O)c2c(=O)cc(-c3ccccc3)oc2c1)c1cc(O)c(O)c(O)c1` [Compound 44, 7-O-galloylchrysin], the inhibition at 100 µM on SARS-CoV-2 3CL^pro [2] (100 µM compound, FRET assay) is more than 99%. Further, the 50% inhibitory concentration (IC50) on SARS-CoV-2 3CL^pro [2] (setting [5]) amounted to 9.26 µM.
With `COc1cc(OC(=O)c2ccc(OC(C)=O)c(OC)c2)c2c(c1)O[C@H](c1ccccc1)CC2=O` [Compound 29, 5-O-(O-acetylvanilloyl)pinostrobin], at SARS-CoV-2 3CL^pro [2], the inhibition at 100 µM was found to be 84.4 ± 3.91%.
For the compound `COc1cc(OC(=O)c2cc(O)c(O)c(O)c2)cc(O)c1C(=O)/C=C/c1ccccc1` [Compound 38, 4′-O-galloylcardamonin], the inhibition at 100 µM on SARS-CoV-2 3CL^pro [2] (100 µM compound, FRET assay) was more than 99%. For the same compound, the IC50 at SARS-CoV-2 3CL^pro [2] (setting [5]) amounted to 13.3 µM.
The matching figures for `COc1c(C)c(OC(=O)c2cc(O)c(O)c(O)c2)c(C)c(O)c1C(=O)/C=C/c1ccccc1` [Compound 40, 4′-O-galloyl-DMC]: more than 99% and 6.85 µM.
In the case of `C=CC(=O)Oc1cc(OC)c(C(=O)/C=C/c2ccccc2)c(OC(=O)C=C)c1` [Compound 17, 2′,4′-O-diacryloylcardamonin], on SARS-CoV-2 3CL^pro [2], the inhibition at 100 µM stood at 76.8 ± 4.85%.
Turning to `O=c1cc(-c2ccccc2)oc2cc(O)cc(O)c12` [Compound 11, chrysin], the “SARS-CoV-2 3CL^pro Inhibition 100 µM (%)” value on SARS-CoV-2 3CL^pro [1] (setting [3]) was 87.73 ± 0.66 ^3%. Besides, at SARS-CoV-2 3CL^pro [1] (setting [4]), the IC50 is 32.8 µM.
With `COc1c(C)c(OC(=O)c2cc(OC(C)=O)c(OC(C)=O)c(OC(C)=O)c2)c(C)c(O)c1C(=O)/C=C/c1ccccc1` [Compound 39, 4′-O-(tri-O-acetylgalloyl)-DMC], on SARS-CoV-2 3CL^pro [2], the “inhibitory activity at 100 µM (in words)” value was “moderate inhibitory activity” and the inhibition at 100 µM was 72 ± 4.27%.
Consider `C=CC(=O)Oc1c(C)c(O)c(C(=O)/C=C/c2ccccc2)c(OC)c1C` [Compound 16, 4′-O-acryloyl-DMC], for which, on SARS-CoV-2 3CL^pro [2], the inhibition at 100 µM stood at 52.9 ± 1.17%.
`COc1cc(OC(=O)c2ccccc2)c2c(c1)O[C@H](c1ccccc1)CC2=O` [Compound 27, 5-O-benzoylpinostrobin]: the inhibition at 100 µM on SARS-CoV-2 3CL^pro [2] (100 µM compound, FRET assay) was 43.4 ± 3.99%. For the same compound, on SARS-CoV-2 3CL^pro [2] (setting [5]), the IC50 was more than 100 µM.
For `COc1cc(O)c2c(=O)cc(-c3ccccc3)oc2c1` [Compound 10, tectochrysin], at SARS-CoV-2 3CL^pro [1] (setting [3]), the “SARS-CoV-2 3CL^pro Inhibition 100 µM (%)” value was 86.39 ± 0.19 ^3%. Besides, the IC50 at SARS-CoV-2 3CL^pro [1] (setting [6]) is 24 µM.
As to `COc1cc(O)cc(O)c1C(=O)/C=C/c1ccccc1` [Compound 8, cardamonin], the “SARS-CoV-2 3CL^pro Inhibition 100 µM (%)” value at SARS-CoV-2 3CL^pro [1] (setting [3]) is on record as 85.60 ± 2.44 ^3%. For the same compound, the IC50 on SARS-CoV-2 3CL^pro [1] (setting [6]) was 57.4 µM.
As for `O=C(O)c1cc(O)c(O)c(O)c1` [gallic acid, reference compound], at SARS-CoV-2 3CL^pro [2], the half-maximal inhibitory concentration (IC50) is more than 100 µM and the inhibition at 100 µM turned out to be 1.72 ± 12.1%.
As for `C=CC(=O)Oc1cc(OC)cc2oc(-c3ccccc3)cc(=O)c12` [Compound 19, 5-O-acryloyltectochrysin], at SARS-CoV-2 3CL^pro [2] (100 µM compound, FRET assay), the inhibition at 100 µM was 37.2 ± 2.09%. The IC50 on SARS-CoV-2 3CL^pro [2] (setting [5]) is more than 100 µM.
Take `COc1cc(O)c2c(c1[N+](=O)[O-])O[C@H](c1ccccc1)CC2=O` [Compound 22, 8-nitropinostrobin]: the inhibition at 100 µM on SARS-CoV-2 3CL^pro [2] came to 55 ± 3.96%.
Same read-out and setting: next, `COc1cc(OC(=O)c2ccccc2OC(C)=O)c2c(c1)O[C@H](c1ccccc1)CC2=O` [Compound 28, 5-O-(O-acetylsalicyloyl)pinostrobin]: 89.7 ± 5.92%.
Consider `COc1cc(OC(=O)c2cc(OC(C)=O)c(OC(C)=O)c(OC(C)=O)c2)cc(O)c1C(=O)/C=C/c1ccccc1` [Compound 37, 4′-O-(tri-O-acetylgalloyl)cardamonin], for which, at SARS-CoV-2 3CL^pro [2], the “inhibitory activity at 100 µM (in words)” value is “moderate inhibitory activity” and the inhibition at 100 µM amounted to 87.2 ± 3.25%.
`O=c1c2ccccc2[se]n1-c1ccccc1` [Ebselen]: the IC50 in the test with 3CL^pro is 670 nM.
Turning to `COc1cc(OC(=O)c2cc(OC(C)=O)c(OC(C)=O)c(OC(C)=O)c2)c2c(c1)O[C@H](c1ccccc1)CC2=O` [Compound 30, 5-O-(tri-O-acetylgalloyl)pinostrobin], at SARS-CoV-2 3CL^pro [2], the “inhibitory activity at 100 µM (in words)” value is “moderate inhibitory activity” and the inhibition at 100 µM was 67.1 ± 2.93%.
The matching figures for `COc1cc(OC(=O)c2cc(OC(C)=O)c(OC(C)=O)c(OC(C)=O)c2)c2c(=O)cc(-c3ccccc3)oc2c1` [Compound 41, 5-O-(tri-O-acetylgalloyl)tectochrysin]: “moderate inhibitory activity” and 72.8 ± 2.43%.
`COc1cc2c(c(O)c1N)C(=O)C[C@@H](c1ccccc1)O2` [Compound 26, 6-aminopinostrobin]: the inhibition at 100 µM on SARS-CoV-2 3CL^pro [2] (100 µM compound, FRET assay) stood at 14.7 ± 5.85%. Also, the IC50 at SARS-CoV-2 3CL^pro [2] (setting [5]) is more than 100 µM.
Turning to `CC(=O)Oc1ccccc1C(=O)Oc1cc(O)c2c(c1)O[C@H](c1ccccc1)CC2=O` [Compound 33, 7-O-(O-acetylsalicyloyl)pinocembrin], the inhibition at 100 µM on SARS-CoV-2 3CL^pro [2] was 81.7 ± 0.89%.
As to `COc1cc(O)c2c(c1N)O[C@H](c1ccccc1)CC2=O` [Compound 25, 8-aminopinostrobin], the inhibition at 100 µM at SARS-CoV-2 3CL^pro [2] (100 µM compound, FRET assay) amounted to 38.2 ± 3.74%. The IC50 at SARS-CoV-2 3CL^pro [2] (setting [5]) was more than 100 µM.
In the case of `O=c1cc(-c2ccccc2)oc2cc(O)c(O)c(O)c12` [Compound 1, baicalein, reference compound], the “SARS-CoV-2 3CL^pro Inhibition 100 µM (%)” value at SARS-CoV-2 3CL^pro [1] (setting [3]) is 62.95 ± 3.10 ^3%.
In the case of `COc1cc(OC(=O)c2cc(O)c(O)c(O)c2)c2c(c1)O[C@H](c1ccccc1)CC2=O` [Compound 31, 5-O-galloylpinostrobin], the inhibition at 100 µM at SARS-CoV-2 3CL^pro [2] (100 µM compound, FRET assay) is more than 99%. Also, at SARS-CoV-2 3CL^pro [2] (setting [5]), the IC50 turned out to be 7.42 µM. Further, at SARS-CoV-2 3CL^pro [2] (versus parent compound), the “increase of 3CL^pro inhibitory activity compared with the parent compound” value is on record as “over 23 fold”.
As for `C=CC(=O)Oc1cc(O)c(C(=O)/C=C/c2ccccc2)c(OC)c1` [Compound 15, 4′-O-acryloylcardamonin], at SARS-CoV-2 3CL^pro [2], the inhibition at 100 µM came out at 66.6 ± 2.05%.
With `COc1cc2c(c(O)c1[N+](=O)[O-])C(=O)C[C@@H](c1ccccc1)O2` [Compound 23, 6-nitropinostrobin], the inhibition at 100 µM on SARS-CoV-2 3CL^pro [2] came to 53.5 ± 4.31%.
On to `COc1c([N+](=O)[O-])c(O)c2c(c1[N+](=O)[O-])O[C@H](c1ccccc1)CC2=O` [Compound 24, 6,8-dinitropinostrobin], for which, on SARS-CoV-2 3CL^pro [2], the IC50 was more than 100 µM and the inhibition at 100 µM was determined as 40 ± 3.27%.
On to `C=CC(=O)Oc1cc(OC(=O)C=C)c2c(=O)cc(-c3ccccc3)oc2c1` [Compound 21, 5,7-O-diacryloylchrysin], for which the inhibition at 100 µM at SARS-CoV-2 3CL^pro [2] (100 µM compound, FRET assay) worked out at 32.3 ± 4.83%. The IC50 at SARS-CoV-2 3CL^pro [2] (setting [5]) is more than 100 µM.
For the compound `O=C1C[C@@H](c2ccccc2)Oc2cc(O)cc(O)c21` [Compound 7, pinocembrin], the “SARS-CoV-2 3CL^pro Inhibition 100 µM (%)” value on SARS-CoV-2 3CL^pro [1] (setting [3]) was 27.18 ± 2.20 ^3%. At SARS-CoV-2 3CL^pro [1] (setting [6]), the half-maximal inhibitory concentration (IC50) was more than 200 µM.
`C=CC(=O)Oc1c(C)c(OC)c(C(=O)/C=C/c2ccccc2)c(OC(=O)C=C)c1C` [Compound 18, 2′,4′-O-diacryloyl-DMC]: on SARS-CoV-2 3CL^pro [2], the inhibition at 100 µM worked out at 68 ± 3.77%.
Regarding `CC(=O)Oc1cc(C(=O)Oc2cc(O)c3c(=O)cc(-c4ccccc4)oc3c2)cc(OC(C)=O)c1OC(C)=O` [Compound 43, 7-O-(tri-O-acetylgalloyl)chrysin], at SARS-CoV-2 3CL^pro [2], the “inhibitory activity at 100 µM (in words)” value is “moderate inhibitory activity” and the inhibition at 100 µM was 85.75 ± 0.48%.
In the case of `CC(=O)Oc1cc(C(=O)Oc2cc(O)c3c(c2)O[C@H](c2ccccc2)CC3=O)cc(OC(C)=O)c1OC(C)=O` [Compound 35, 7-O-(tri-O-acetylgalloyl)pinocembrin], at SARS-CoV-2 3CL^pro [2], the “inhibitory activity at 100 µM (in words)” value is “moderate inhibitory activity” and the inhibition at 100 µM came to 73 ± 1.66%.
Turning to `C=CC(=O)Oc1cc(OC(=O)C=C)c2c(c1)O[C@H](c1ccccc1)CC2=O` [Compound 14, 5,7-O-diacryloylpinocembrin], the inhibition at 100 µM at SARS-CoV-2 3CL^pro [2] was 76.2 ± 0.97%.
For the compound `O=C(Oc1cc(O)c2c(c1)O[C@H](c1ccccc1)CC2=O)c1cc(O)c(O)c(O)c1` [Compound 36, 7-O-galloylpinocembrin], on SARS-CoV-2 3CL^pro [2] (100 µM compound, FRET assay), the inhibition at 100 µM was more than 99%. Moreover, on SARS-CoV-2 3CL^pro [2] (setting [5]), the IC50 was found to be 7.53 µM.
With `O=C(Oc1cc(O)c2c(c1)O[C@H](c1ccccc1)CC2=O)c1ccccc1` [Compound 32, 7-O-benzoylpinocembrin], the inhibition at 100 µM at SARS-CoV-2 3CL^pro [2] is 70.8 ± 2.72%.
`COc1cc(O)c2c(c1)O[C@H](c1ccccc1)CC2=O` [Compound 6, pinostrobin]: the “SARS-CoV-2 3CL^pro Inhibition 100 µM (%)” value at SARS-CoV-2 3CL^pro [1] (setting [3]) is 26.44 ± 2.32 ^3%. The concentration for half-maximal inhibition (IC50) at SARS-CoV-2 3CL^pro [1] (setting [6]) is more than 200 µM.
Take `C=CC(=O)Oc1cc(O)c2c(c1)O[C@H](c1ccccc1)CC2=O` [Compound 13, 7-O-acryloylpinocembrin]: the inhibition at 100 µM on SARS-CoV-2 3CL^pro [2] amounted to 79.2 ± 1.52%.
Regarding `C=CC(=O)Oc1cc(O)c2c(=O)cc(-c3ccccc3)oc2c1` [Compound 20, 7-O-acryloylchrysin], on SARS-CoV-2 3CL^pro [2], the inhibition at 100 µM came to 84.01 ± 0.82%.
